Laboratory results as given in patent US20260070922A1, “PYRAZOLE AND IMIDAZOLE DERIVATIVES AS DUAL OREXIN AND KAPPA-OPIOID RECEPTORS MODULATORS COMPOSITION, METHODS FOR TREATING NEUROLOGICAL AND PSYCHIATRIC DISORDERS” (HAGER BIOSCIENCES, LLC, priority 2022, published 2026).
pIC50: −log10 of the molar value.

Tests used:
[1] = molecular target: T1, human orexin-2 receptor (OX2R) (Homo sapiens, UniProt O43614); experiment: In vitro orexin antagonism assay: intracellular calcium measurement (FLIPR), orexin-A 3 nM as agonist; type: cell-based; settings: for pIC50: first value of IC50/Kb cell; for inhibition at 1 µM: read-out: OX2R, % Inh. @ 1 uM; for Kb: second value of IC50/Kb cell
T1 construct: expressed in transfected cells; host or cells: CHO cells (G418 selection)
T1 sequence (O43614 1-444): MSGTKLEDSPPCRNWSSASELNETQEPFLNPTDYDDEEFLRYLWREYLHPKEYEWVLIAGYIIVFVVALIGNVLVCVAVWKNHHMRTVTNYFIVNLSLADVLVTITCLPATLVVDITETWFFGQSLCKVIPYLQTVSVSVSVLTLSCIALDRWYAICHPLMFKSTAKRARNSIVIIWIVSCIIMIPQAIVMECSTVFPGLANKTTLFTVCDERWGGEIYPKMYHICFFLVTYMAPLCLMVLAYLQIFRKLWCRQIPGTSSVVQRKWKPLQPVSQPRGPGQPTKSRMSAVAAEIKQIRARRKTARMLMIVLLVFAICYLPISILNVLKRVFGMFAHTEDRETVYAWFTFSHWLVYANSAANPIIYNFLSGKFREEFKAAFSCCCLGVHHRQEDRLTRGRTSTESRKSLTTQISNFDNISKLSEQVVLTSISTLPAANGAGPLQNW
Outline: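 Fluorescence peak on 3 nM orexin-A challenge, read by FLIPR and compared with vehicle, yields IC50 (geometric mean when repeated; may be normalized to an on-plate reference). Antagonists were added 120 min beforehand to fluo-4-loaded recombinant CHO cells expressing human OX1R or OX2R.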

[2] = molecular target: T2, Orexin type 1 (OX1R) receptor (Homo sapiens, UniProt O43613); experiment: as above; type: cell-based; settings: for pIC50: first value of IC50/Kb cell; for inhibition at 1 µM: read-out: OX1R, % Inh. @ 1 uM; for Kb: second value of IC50/Kb cell
T2 construct: expressed in transfected cells; host or cells: CHO cells (G418 selection)
T2 sequence (O43613 1-425): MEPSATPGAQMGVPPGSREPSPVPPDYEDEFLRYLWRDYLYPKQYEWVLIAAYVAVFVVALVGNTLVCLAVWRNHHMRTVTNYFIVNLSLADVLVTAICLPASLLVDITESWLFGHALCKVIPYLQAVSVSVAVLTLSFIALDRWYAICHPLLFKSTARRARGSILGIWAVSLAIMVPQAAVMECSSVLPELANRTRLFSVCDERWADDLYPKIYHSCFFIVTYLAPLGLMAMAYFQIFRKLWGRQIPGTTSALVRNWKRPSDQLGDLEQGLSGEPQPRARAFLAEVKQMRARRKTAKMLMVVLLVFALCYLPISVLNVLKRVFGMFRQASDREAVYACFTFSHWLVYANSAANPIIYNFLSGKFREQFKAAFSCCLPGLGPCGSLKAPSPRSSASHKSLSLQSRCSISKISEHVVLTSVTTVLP
Outline: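 CHO cells expressing the human orexin receptor were loaded with 3 μM fluo-4 AM plus 5 mM probenecid, then exposed to antagonist for 120 min before 3 nM orexin-A (final) was added on a FLIPR.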

[3] = molecular target: T3, human k-opioid receptor (kOR) (Homo sapiens, UniProt P41145); experiment: Human k-opioid (KOP) receptor (agonist radioligand [3H]U-69593) binding assay, transfected RBL cell membranes; settings: read-out: KOR % Inh. @ 1 uM
T3 construct: expressed in transfected cells; host or cells: RBL cells (membrane homogenates)
Procedure: Human k-Opioid (KOP) Receptor (Agonist Radioligand) Binding Assay
Purpose: Evaluation of the affinity of compounds for the human k-opioid receptor in transfected RBL cells determined in a radioligand binding assay.
Experimental protocol: Cell membrane homogenates (about 80 μg protein) are incubated for 60 min at 22° C. with 0.5 nM [3H]U-69593 in the absence or presence of the test compound in a buffer containing 50 mM Tris-HCl (pH 7.4), 10 mM MgCl2 and 1 mM EDTA. Nonspecific binding is determined in the presence of 10 μM naloxone. Following incubation, the samples are filtered rapidly under vacuum through glass fiber filters ([…], Packard) presoaked with 0.3% PEI and rinsed several times with ice-cold 50 mM Tris-HCl using a 96-sample cell harvester (Unifilter, Packard). The filters are dried then counted for radioactivity in a scintillation counter (Topcount, Packard) using a scintillation cocktail (Microscint 0, Packard). The results are expressed as a percent inhibition of the control radioligand specific binding. The standard reference compound is U-50488, which is tested in each experiment at several concentrations to obtain a competition curve from which its IC50 is calculated.

T3 sequence (P41145 whole entry): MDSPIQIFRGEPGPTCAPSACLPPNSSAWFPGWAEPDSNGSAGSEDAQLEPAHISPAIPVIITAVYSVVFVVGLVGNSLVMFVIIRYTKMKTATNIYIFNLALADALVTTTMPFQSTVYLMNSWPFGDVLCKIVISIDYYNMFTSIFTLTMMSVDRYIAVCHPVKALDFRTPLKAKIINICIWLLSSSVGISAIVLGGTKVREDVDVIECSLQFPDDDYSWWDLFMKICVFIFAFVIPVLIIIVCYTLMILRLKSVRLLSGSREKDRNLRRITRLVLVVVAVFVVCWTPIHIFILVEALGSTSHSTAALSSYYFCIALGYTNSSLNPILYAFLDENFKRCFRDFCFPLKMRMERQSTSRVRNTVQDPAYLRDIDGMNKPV

Row | SMILES | pIC50 [1] | inhibition at 1 µM [1] [%] | Kb [1] [nM] | pIC50 [2] | inhibition at 1 µM [2] [%] | Kb [2] [nM] | inhibition at 1 µM [3] [%] | OX2R, % Inh. @ 1 uM [1] [%] | OX1R, % Inh. @ 1 uM [2] [%]
1 | [2H]C1([2H])CC[C@@]([2H])(Cn2ccc(-c3ccc(F)cc3)n2)N1C(=O)c1c(-c2ncccn2)nn2ccccc12 [Example 178] | 7.82 | 95 | 3 | 8.40 | 92 | 0.8 | 53 |  | 
2 | O=C(c1c(-c2ccccc2)nc2ccccn12)N1[C@@H]2CC[C@@H](C2)[C@H]1COc1ccc(C(F)(F)F)cn1 [Example 89] |  | 46 |  | 7.10 | 98 | 2 | 11 |  | 
3 | O=C(c1c(-c2ccccc2F)nc2ccccn12)N1CCC[C@H]1COc1ccc(C(F)(F)F)cn1 [Example 65] |  | 41 |  | 7.28 | 64 | 11 | 11 |  | 
4 | C[C@@]1(COc2ccc(C(F)(F)F)cn2)CCCN1C(=O)c1c(-c2ncccn2)nn2ccccc12 [Example 148] |  | 19 |  | 6.92 | 98 | 26 | 8 |  | 
5 | C[C@@]1(COc2cnc(C(F)(F)F)cn2)CCCN1C(=O)c1c(-c2ncccn2)nn2ccccc12 [Example 166] |  | 10 |  |  | 53 |  |  |  | 
6 | O=C(c1c(-c2ccccc2F)nn2c1COCC2)N1[C@H](Cn2ccc(-c3ccc(F)cn3)n2)C[C@@H]2C[C@@H]21 [Example 108] |  | 17 |  |  | 23 |  |  |  | 
7 | O=C(c1c(-c2ccccc2)nn2ccccc12)N1CCC[C@H]1CNc1ccc(F)cn1 [Example 30] |  | 14.8 |  |  | 32.5 |  |  |  | 
8 | O=C(c1c(-c2ccc(F)cc2)nn2c1COCC2)N1CCC[C@H]1Cn1ccc(-c2ccc(F)cc2)n1 [Example 54] |  | 45.1 |  | 6.91 | 98 | 26 |  |  | 
9 | O=C(c1nc2ccccn2c1-c1ccccn1)N1CCC[C@H]1Cc1nc(-c2ccccn2)no1 [Example 209] |  | 4 |  | 6.52 | 75 | 63 |  |  | 
10 | O=C(c1c(-c2ncccn2)nn2ccccc12)N1CCC[C@H]1Cn1cc(-c2ccc(F)cn2)cn1 [Example 204] |  | 66 |  |  | 53 |  |  |  | 
11 | O=C(c1c(-c2ccccc2)nc2cc(C(F)(F)F)ccn12)N1CC[C@H]1Cn1ccc(-c2ccc(F)cn2)n1 [Example 106] |  | 39 |  |  | 19 |  |  |  | 
12 | C[C@@]1(COc2cnc(C(F)(F)F)cn2)CCCN1C(=O)c1c(-c2ccccc2)nn2c1COCC2 [Example 169] |  | 15 |  |  | 2 |  |  |  | 
13 | O=C(c1nn2cccnc2c1-c1ccccn1)N1CCC[C@H]1Cn1ccc(-c2ccc(F)cn2)n1 [Example 193] |  | 71 |  | 7.80 | 91 | 3 |  |  | 
14 | O=C(c1nc2ccccn2c1-c1ccccc1)N1CCC[C@H]1Cn1ccc(-c2ccc(F)cn2)n1 [Example 123] |  |  |  |  |  |  |  | 42 | 100
15 | O=C(c1nn2c(c1-c1ccccn1)COCC2)N1CCC[C@H]1Cn1cc(-c2ccc(F)cn2)cn1 [Example 214] |  | 32 |  |  | 66 |  |  |  | 
16 | O=C(c1nn2c(c1-c1ccccn1)COCC2)N1CCC[C@H]1Cn1ccc(-c2ccc(F)cn2)n1 [Example 196] |  |  |  | 7.62 |  | 5 |  | 39 | 99
17 | O=C(c1c(-c2ccccc2F)nn2c1COCC2)N1CCC[C@H]1Cn1ccc(-c2ccccn2)n1 [Example 70] |  | 35 |  | 6.92 | 60 | 25 |  |  | 
18 | O=C(c1nc2n(c1-c1ccccn1)CCOC2)N1CCC[C@H]1Cn1cc(-c2ccccn2)cn1 [Example 217] |  | 57 |  | 6.68 | 76 | 45 |  |  | 
19 | O=C(c1c(-c2ncccn2)nn2ccccc12)N1C2CCC1(COc1ccc(C(F)(F)F)cn1)CC2 [Example 161] |  | 6 |  |  | 44 |  |  |  | 
20 | O=C(c1c(-c2ccccc2)nn2c1COCC2)N1CCC[C@H]1Cn1ccc(-c2ccc(F)cn2)n1 [Example 93] |  | 36 |  |  | 41 |  |  |  | 

Second part, led by results:

Row | pIC50 [1] | inhibition at 1 µM [1] [%] | Kb [1] [nM] | pIC50 [2] | inhibition at 1 µM [2] [%] | Kb [2] [nM] | inhibition at 1 µM [3] [%] | SMILES | OX2R, % Inh. @ 1 uM [1] [%] | OX1R, % Inh. @ 1 uM [2] [%]
21 |  | 27 |  | 6.46 | 99 | 74 | 0 | C[C@@]1(COc2ccc(C(F)(F)F)cn2)CCCN1C(=O)c1nn2cccnc2c1-c1ccccc1 [Example 146] |  | 
22 |  | 26 |  | 8.00 | 100 | 2 | 0 | [2H]C1([2H])CC[C@@]([2H])(COc2ccc(C(F)(F)F)cn2)N1C(=O)c1nn2c(c1-c1ccccc1)COCC2 [Example 171] |  | 
23 |  | 3.6 |  |  | 19.7 |  |  | O=C(c1c(-c2ccccc2)nc2ncccn12)N1CCC[C@H]1CNc1ccc(C(F)(F)F)cn1 [Example 32] |  | 
24 |  | 49 |  | 7.96 | 88 | 2 |  | O=C(c1c(-c2ccccn2)nn2ccccc12)N1CCC[C@H]1COc1ccc(C(F)(F)F)cn1 [Example 192] |  | 
25 |  | 28 |  | 6.32 | 72 | 100 |  | C[C@@]1(COc2cnc(C(F)(F)F)cn2)CCCN1C(=O)c1c(-c2ccccc2)nn2cccnc12 [Example 168] |  | 
26 |  | 11 |  | 6.11 | 75 | 162 |  | C[C@@]1(COc2cnc(C(F)(F)F)cn2)CCCN1C(=O)c1nc2ccccn2c1-c1ccccc1 [Example 163] |  | 
27 |  | 10.4 |  |  | 25.4 |  |  | O=C(c1c(-c2ccccc2)nn2ccccc12)N1CCC[C@H]1COc1ccc(Br)nc1 [Example 37] |  | 
28 |  | 43 |  |  | 24 |  |  | O=C(c1c(-c2ccccc2F)nn2ccccc12)N1CC[C@H]1Cn1ccc(-c2ccc(F)cn2)n1 [Example 103] |  | 
29 |  | 23 |  | 7.54 | 82 | 6 |  | O=C(c1nn2cccnc2c1-c1ccccn1)N1CCC[C@H]1Cc1nc(-c2ccccn2)no1 [Example 188] |  | 
30 |  | 29 |  | 7.96 | 93 | 2 |  | O=C(c1nn2ccccc2c1-c1ccccn1)N1CCC[C@H]1Cc1nc(-c2ccccn2)no1 [Example 175] |  | 
31 |  | 50.4 |  | 8.05 | 99 | 2 |  | O=C(c1c(-c2ccccc2)nn2c1COCC2)N1CCCC[C@H]1CNc1ccc(C(F)(F)F)cn1 [Example 27] |  | 
32 |  | 35 |  |  | 19 |  |  | O=C(c1c(-c2ccccc2)nn2c1COCC2)N1CCC[C@H]1Cn1cc(-c2ccc(F)cn2)cn1 [Example 85] |  | 
33 | 7.13 | 72 | 10 | 7.77 | 99.8 | 4 |  | O=C(c1c(-c2ccccc2)nn2ccccc12)N1CCCC[C@H]1CNc1ccc(C(F)(F)F)cn1 [Example 25] |  | 
34 | 6.18 | 60 | 110 |  | 31 |  |  | O=C(c1c(-c2ccccc2)nc2cc(C(F)(F)F)ccn12)N1CC[C@H]1Cn1ccc(-c2ccc(F)cc2)n1 [Example 102] |  | 
